Measured values: patent US20160367622A1, “AGONISTS OF GUANYLATE CYCLASE USEFUL FOR THE TREATMENT OF OPIOID INDUCED DYSFUNCTIONS” (priority 2013, published 2016)
Entries after “also recorded” stand apart in the source; their conditions may differ. Positions of bridges follow the written chain, without caps; N, C: chain ends. Non-standard residues stand in square brackets, D forms with d. Residues, ends and D or L forms follow the SMILES beside them.

Columns and labels:
[1] = tested on: female Sprague-Dawley rats; test: morphine-induced delay in rat GI transit (charcoal meal); assay type: in vivo; conditions: 2.5 mg/kg morphine IP
Method: Animals: All study procedures were conducted under a study outline approved by the Institutional Animal Care and Use Committee of MB Research Labs (Spinnerstown, Pa.) or Lampire Biological Laboratories (Pipersville, Pa.). Seven to eight week old female Sprague-Dawley rats [Crl:CD(SD)], weighing between ˜180-210 grams, were obtained from Charles River Laboratories and allowed to acclimate for a week. Animals were maintained on a 12 hour light-dark cycle. For intestinal tissue collection and evaluation of GI transit, rats were fasted for at least 18 hours before the experiment, with free access to water.
The ability of opioids to delay GI transit in rats was tested by either administering 0 (vehicle) 0.25, 1 and 2.5 mg/kg of morphine or 0 (vehicle), 0.25, 2.5 and 5 mg/kg of methadone (1.5 ml/kg dose volume) by IP injection. Water served as vehicle control. Ten minutes later, a 2 mL charcoal meal consisting of 10% activated charcoal (Sigma-Aldrich, St. Louis, Mo.) and 10% gum Arabic (Sigma-Aldrich, St. Louis, Mo.) in water was administered via oral gavage. Rats were euthanized 10 min after the charcoal meal via IP injection of 150 mg/kg Beuthanasia-D solution (sodium pentobarbital, 390 mg/mL). The small intestine was removed and the total length from the pyloric sphincter to the ileocecal junction was recorded, as well as the distance traveled by the leading edge of the charcoal. Intestinal transit was determined by calculating the ratio (expressed as a percentage) of the distance between the pyloric sphincter and the leading edge of the charcoal to the distance between the pyloric sphincter and the ileocecal junction.
To evaluate the ability of SP-333 to reverse morphine induced delayed GI transit, animals were administered 2.5 mg/kg of morphine by IP injection followed immediately by oral gavage of 0 (vehicle), 0.5, 2.5, 5 and 50 mg/kg of SP-333 (1.5 ml/kg dose volume). Water served as vehicle control. Charcoal meal was administered ten minutes later and animals were euthanized ten minutes after the charcoal meal and intestinal transit was calculated as described above.

[2] = tested on: female Sprague-Dawley CD rats; test: methadone-induced constipation in rats (fecal output); assay type: in vivo, rat
Method: To identify the methadone dose that induces constipation in rats, female Sprague-Dawley CD rats 7 to 8 weeks of age (n=6/group) were administered 0 (vehicle), 2.5, 5, and 7.5 mg/kg of methadone (1.5 ml/kg dose volume) by IP injection once a day for 5 days. Fecal pellets were collected at 4 h intervals during the light cycle and average number of pellets was recorded for each group during the course of the study following daily dose administrations of methadone.
To evaluate the ability of SP-333 to relieve methadone-induced constipation, female Sprague-Dawley CD rats 7 to 8 weeks of age (n=7/group) were administered 5 mg/kg of methadone (or vehicle) each day for 7 days via IP injection to induce constipation. Ten minutes following the IP dose each day, an oral gavage of 2.5, and 5 mg/kg of SP-333 or vehicle (buffer) was administered. Fecal pellets were collected at 4 h intervals during the light cycle and average number of pellets recorded for each group during the course of the study following daily administration of vehicle, methadone or combination of methadone and SP-333.

[3] = tested on: female Sprague-Dawley CD rats; test: GI transit delay induced by repeated methadone administration in rats; assay type: in vivo, rat; conditions: SP-333 oral daily
Method: The ability of SP-333 to alleviate GI transit delay induced by repeated methadone administration was also evaluated in the similar manner. Female Sprague-Dawley CD rats 7 to 8 weeks of age (n=7/group) received via IP injection 16 doses of methadone (once daily; 7 doses @ 5 mg/kg and 9 doses @ 2.5 mg/kg). Ten minutes following each methadone dose, each group received an oral gavage of vehicle, 2.5, and 5 mg/kg of SP-333. At the end of the dosing regimen, animals were fasted overnight and GI transit was evaluated as described above.

CC(C)C[C@@H]1NC(=O)[C@H](CCC(=O)O)NC(=O)[C@@H](NC(=O)[C@H](CCC(=O)O)NC(=O)[C@H](CC(=O)O)NC(=O)[C@H](N)CC(N)=O)CSSC[C@@H]2NC(=O)[C@H](C)NC(=O)[C@H](C(C)C)NC(=O)[C@H](CC(N)=O)NC(=O)[C@H](C(C)C)NC(=O)[C@H](CSSC[C@@H](C(=O)N[C@H](CC(C)C)C(=O)O)NC(=O)CNC(=O)[C@H]([C@@H](C)O)NC2=O)NC1=O [SP-333, dAsn^1-Asp^2-Glu^3-Cys^4-Glu^5-Leu^6-Cys^7-Val^8-Asn^9-Val^10-Ala^11-Cys^12-Thr^13-Gly^14-Cys^15-dLeu^16] (H-[dN]DECELCVNVACTGC[dL]-OH; disulfide 4-12, 7-15)
GI transit in morphine-treated rats ([1]; then SP-333 0.5 mg/kg oral gavage): 27% | GI transit in morphine-treated rats ([1]; then SP-333 2.5 mg/kg oral gavage): 37% | GI transit in morphine-treated rats ([1]; then SP-333 5 mg/kg oral gavage): 46% | GI transit in morphine-treated rats ([1]; then SP-333 50 mg/kg oral gavage): 48% | pellet count compared to the methadone dosed group ([2]; SP-333 2.5 mg/kg oral daily 10 min after methadone (5 mg/kg 7 days, then 2.5 mg/kg days 8-16)): threefold increase; also recorded: significantly relieved methadone-induced constipation | average number of pellets / fecal output compared to the methadone dosed group ([2]; SP-333 2.5 and 5 mg/kg oral daily after methadone (5 mg/kg 7 days, then 2.5 mg/kg days 8-16)): partially restored fecal output; also recorded: higher compared to the methadone dosed group | GI-transit delay caused by repeated methadone dosing ([3]; 16 daily methadone doses (7 at 5 mg/kg, 9 at 2.5 mg/kg)): normalized GI transit; also recorded: relieved the GI-transit delay; also recorded: relieves methadone-induced GI transit delay; also recorded: statistically significant improvement in GI transit delay | GI-transit delay caused by repeated methadone dosing ([3]; methadone 2.5 mg/kg IP daily 9 days): relieved the GI-transit delay
